The results in this text go back to PubChem BioAssay (NCI).

Each structure is given as a SMILES string.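 1) Cells in 96-well plates. 2) Compound, 48 h, 5 concentrations. 3) Linear interpolation between surrounding doses. 4) Unreached endpoint = highest concentration. GI50 is the concentration that inhibits growth by half. TGI marks complete inhibition of growth.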 Where a SMILES comes first, the peptide text is derived from it. [ ]: non-standard residue; d: D form. The star is where a group is joined. Bn2Val = CC(C)[C@@H](C(=O)*)N(Cc1ccccc1)Cc1ccccc1; NH(4-Cl-benzyl) = Clc1ccc(CN*)cc1; NMeV = CN[C@H](C(=O)O)C(C)C; dNMeA = CN[C@H](C)C(=O)O

Among the test systems are OVCAR-5 ovarian; EKVX NSCLC; TK-10 renal; NCI-H460 lung; SF-539 CNS; MOLT-4 leukemia; HOP-92 NSCLC; NCI/ADR-RES ovarian.
Assay in all cases: DTP human tumour cell line panel, 48 h

As to `CCc1cc2c(c3c1CCCC3=O)CC1(Cc3ccc(C(=O)OC)cc3C1)C2` (stereo not given), the TGI in the test on OVCAR-5 ovarian, in the test with EKVX NSCLC, in the test on TK-10 renal, with NCI-H460 lung, in the test with SF-539 CNS and in the test with MOLT-4 leukemia was more than 100 µM throughout. The TGI with HOP-92 NSCLC and with NCI/ADR-RES ovarian was more than 100 µM each time.

Consider `COc1cc(C2c3cc4c(cc3C3OC[C@@H]2C3CO)OCO4)cc(OC)c1OC` (stereo not given in full), for which the concentration for total growth inhibition (TGI) – broadly, the concentration giving total growth inhibition – with OVCAR-5 ovarian was more than 100 µM; with EKVX NSCLC, more than 100 µM; in the test on TK-10 renal it was more than 100 µM; with NCI-H460 lung, 47.8 µM; in the test with SF-539 CNS it was 37.3 µM; with MOLT-4 leukemia it was more than 100 µM. Besides, the TGI in the test with HOP-92 NSCLC was more than 100 µM; in the test on NCI/ADR-RES ovarian, 39.3 µM. For the same compound, in the test with SF-539 CNS, the GI50 – broadly, the concentration giving 50% growth inhibition – is 17.7 µM.

Take `CC(Oc1ccccc1Cl)C(=O)NN1C(=O)CSC1c1ccccc1` (stereo not given): the TGI in the test with OVCAR-5 ovarian, in the test on EKVX NSCLC, with TK-10 renal, in the test on NCI-H460 lung, in the test with SF-539 CNS and with MOLT-4 leukemia was more than 100 µM each time. Further, the TGI in the test on HOP-92 NSCLC and in the test on NCI/ADR-RES ovarian was more than 100 µM throughout.

`CC(C)(C)n1c(=O)[nH]c(=O)n1C(C)(C)C`: the TGI in the test on OVCAR-5 ovarian, in the test on EKVX NSCLC, with TK-10 renal, in the test with NCI-H460 lung, with SF-539 CNS and in the test on MOLT-4 leukemia was more than 100 µM each time. Besides, the concentration for total growth inhibition (TGI) in the test with HOP-92 NSCLC and in the test with NCI/ADR-RES ovarian was more than 100 µM in each case.

Turning to `Cc1ccc(S(=O)(=O)Nn2c(O)c(C#N)c(-c3ccc(Cl)cc3)c(C#N)c2=O)cc1`, the TGI with OVCAR-5 ovarian, in the test with EKVX NSCLC, in the test with TK-10 renal, in the test on NCI-H460 lung, in the test on SF-539 CNS and in the test with MOLT-4 leukemia was more than 100 µM each time. The TGI in the test with HOP-92 NSCLC and in the test on NCI/ADR-RES ovarian was more than 100 µM in each case.

Regarding `CC(C)(C)[Si](C)(C)OCc1cccc(OCCOc2cccc(CO[Si](C)(C)C(C)(C)C)c2[N+](=O)[O-])c1[N+](=O)[O-]`, the TGI with OVCAR-5 ovarian, with EKVX NSCLC, in the test with TK-10 renal, with NCI-H460 lung, with SF-539 CNS and in the test with MOLT-4 leukemia was more than 100 µM each time. Further, the TGI in the test on HOP-92 NSCLC and with NCI/ADR-RES ovarian was more than 100 µM each time.

Take `Cc1cc(OC(=O)NCn2cc(-c3ccccc3)nn2)ccc1Cl`: the TGI in the test on OVCAR-5 ovarian, in the test on EKVX NSCLC, in the test with TK-10 renal, in the test with NCI-H460 lung, in the test on SF-539 CNS and with MOLT-4 leukemia was more than 100 µM in each case. Besides, the concentration for total growth inhibition (TGI) in the test on HOP-92 NSCLC and in the test on NCI/ADR-RES ovarian was more than 100 µM throughout.

As to `CCCCCCCCCCCCCCCCCCNc1nc(=O)n(C2CC(O)C(COP(=O)(O)O)O2)cc1F` (stereo not given), the TGI with OVCAR-5 ovarian was more than 100 µM; in the test with EKVX NSCLC it was more than 100 µM; with TK-10 renal, more than 100 µM; with NCI-H460 lung, more than 100 µM; in the test with SF-539 CNS, more than 100 µM; in the test on MOLT-4 leukemia, more than 96.1 µM. The TGI in the test on HOP-92 NSCLC and with NCI/ADR-RES ovarian was more than 100 µM each time.

In the case of `CC(C)[C@H](NC(=O)[C@H](C(C)C)N(Cc1ccccc1)Cc1ccccc1)C(=O)N(C)[C@H](C(=O)N1CCC[C@H]1C(=O)N(C)[C@H](C)C(=O)NCc1ccc(Cl)cc1)C(C)C` (Bn2Val-V[NMeV]P[dNMeA]-{NH(4-Cl-benzyl)}), the TGI in the test with OVCAR-5 ovarian is more than 100 µM; with EKVX NSCLC, 34 µM; with TK-10 renal, more than 100 µM; in the test on NCI-H460 lung it was more than 100 µM; in the test with SF-539 CNS it was 62.3 µM; with MOLT-4 leukemia, more than 100 µM. Moreover, the values for the TGI in the test on HOP-92 NSCLC and in the test on NCI/ADR-RES ovarian were 17.9 µM and 95.7 µM, respectively.

With `COc1ccc(C(SC2C(O)C(CO)OC2n2ccc(=O)[nH]c2=O)(c2ccccc2)c2ccc(OC)cc2)cc1` (stereo not given), the TGI in the test on OVCAR-5 ovarian was 39.7 µM; in the test with EKVX NSCLC, 41.8 µM; in the test on TK-10 renal, 57 µM; with NCI-H460 lung it was 26 µM; in the test with SF-539 CNS, 39.2 µM; with MOLT-4 leukemia it was more than 100 µM. For the same compound, the TGI with HOP-92 NSCLC is 29.7 µM; in the test on NCI/ADR-RES ovarian, 47.1 µM.

As to `O=c1[nH]n(Cc2ccccc2)c2ccc([N+](=O)[O-])cc12`, the TGI with OVCAR-5 ovarian, in the test with EKVX NSCLC, with TK-10 renal, in the test with NCI-H460 lung, in the test on SF-539 CNS and in the test with MOLT-4 leukemia was more than 100 µM throughout. Further, the TGI in the test with HOP-92 NSCLC and in the test with NCI/ADR-RES ovarian was more than 100 µM in each case.

As for `O=c1oc(C(C(F)(F)F)C(F)(F)F)nc2ccccc12`, the TGI in the test with OVCAR-5 ovarian, in the test on EKVX NSCLC, in the test with TK-10 renal, with NCI-H460 lung, in the test on SF-539 CNS and with MOLT-4 leukemia was more than 100 µM throughout. In addition, the TGI in the test on HOP-92 NSCLC and with NCI/ADR-RES ovarian was more than 100 µM each time.

Consider `COc1cc(C2C(Cl)C(=O)N2c2c(C)n(C)n(-c3ccccc3)c2=O)ccc1O` (stereo not given), for which the TGI was found to be 42.7 µM with OVCAR-5 ovarian; 70.2 µM with EKVX NSCLC; 63.5 µM in the test on TK-10 renal; 59.7 µM in the test with NCI-H460 lung; 39.4 µM with SF-539 CNS; 67 µM in the test with MOLT-4 leukemia. Also, the results for the TGI in the test with HOP-92 NSCLC and with NCI/ADR-RES ovarian were 74 µM and 75.8 µM, respectively.

For the compound `COc1ccc(OC)c(SC(CC(=O)c2ccccc2)c2ccccc2)c1` (stereo not given), the TGI in the test with OVCAR-5 ovarian is 33.5 µM; in the test on EKVX NSCLC, 31.1 µM; in the test with TK-10 renal, 32.7 µM; in the test on NCI-H460 lung it was more than 100 µM; with SF-539 CNS, 15.7 µM; in the test with MOLT-4 leukemia, more than 100 µM. The TGI is more than 100 µM in the test on HOP-92 NSCLC and 32.4 µM in the test with NCI/ADR-RES ovarian.

Consider `COc1ccc(C(=O)CC(c2ccccc2)[C@H]2C(c3ccc(OC)cc3)=Nc3c(nc(SC)n(C)c3=O)NC2c2ccccc2)cc1` (stereo not given in full), for which the TGI with OVCAR-5 ovarian, in the test on EKVX NSCLC, with TK-10 renal, with NCI-H460 lung, in the test on SF-539 CNS and with MOLT-4 leukemia was more than 100 µM each time. Further, the TGI with HOP-92 NSCLC and with NCI/ADR-RES ovarian was more than 100 µM in each case.

Consider `COc1cccc(N=N/C(=N\NC(=O)c2ccc(C)cc2)c2ccc(N(CCC#N)CCC#N)cc2C)c1`, for which the TGI in the test with OVCAR-5 ovarian, with EKVX NSCLC, with TK-10 renal, with NCI-H460 lung, in the test with SF-539 CNS and in the test with MOLT-4 leukemia was more than 100 µM each time. The TGI in the test on HOP-92 NSCLC and with NCI/ADR-RES ovarian was more than 100 µM in each case.

As to `COc1cnc2c(c1)C(=O)c1c-2n(CCCNCCO)c(=O)c2ccncc12`, the GI50 in the test with OVCAR-5 ovarian is 2.74 µM; in the test on EKVX NSCLC, 2.29 µM; in the test on TK-10 renal it was 2.05 µM; in the test with NCI-H460 lung, 0.513 µM; with SF-539 CNS it was 1.4 µM; with MOLT-4 leukemia, 0.405 µM. For the same compound, the GI50 in the test with HOP-92 NSCLC is 1.4 µM; in the test on NCI/ADR-RES ovarian, 5.83 µM. The TGI was 20.5 µM in the test with OVCAR-5 ovarian; 9.27 µM with EKVX NSCLC; 19.3 µM in the test on TK-10 renal; 3.99 µM with NCI-H460 lung; 6.95 µM in the test with SF-539 CNS; 10.2 µM in the test on MOLT-4 leukemia. Besides, the TGI in the test with HOP-92 NSCLC turned out to be 6.31 µM; in the test on NCI/ADR-RES ovarian, 30.8 µM.

On to `CC(C)=CCNc1nc(Cl)nc2nc[nH]c12`, for which the TGI in the test with OVCAR-5 ovarian was more than 100 µM; in the test on EKVX NSCLC, more than 100 µM; in the test with TK-10 renal, more than 100 µM; with NCI-H460 lung, 68.8 µM; in the test with SF-539 CNS, more than 100 µM; in the test on MOLT-4 leukemia it was more than 100 µM. Also, the figures for the TGI with HOP-92 NSCLC and in the test on NCI/ADR-RES ovarian were 87.5 µM and more than 100 µM, respectively.

For `COc1ccc(Nc2ccc3ccccc3c2-c2c(O)ccc3ccccc23)cc1`, the TGI in the test on OVCAR-5 ovarian was 31.8 µM; with EKVX NSCLC it was 31.8 µM; with TK-10 renal, 75.3 µM; in the test with NCI-H460 lung, 30 µM; in the test on SF-539 CNS, 51.1 µM; in the test on MOLT-4 leukemia it was 34.3 µM. Moreover, the TGI was determined as 14.3 µM with HOP-92 NSCLC and 36.5 µM in the test with NCI/ADR-RES ovarian.

With `CC(C)/C(Cl)=N\OC(NC(=O)P(=O)(c1ccccc1)c1ccccc1)(C(F)(F)F)C(F)(F)F`, the TGI in the test on OVCAR-5 ovarian was 48.3 µM; with EKVX NSCLC, 63.2 µM; in the test on TK-10 renal, 25.2 µM; with NCI-H460 lung, 53.7 µM; with SF-539 CNS, 27.6 µM; in the test on MOLT-4 leukemia it was 39.6 µM. Also, the TGI came to 12.8 µM in the test on HOP-92 NSCLC and 42.2 µM in the test with NCI/ADR-RES ovarian.

In the case of `CC(=O)NC1C(OCc2ccccc2)OC(CO)C(O)C1OC(C)C(=O)NC(C(=O)NC(CCC(=O)NCCCCNc1c2ccccc2nc2cccc([N+](=O)[O-])c12)C(N)=O)C(C)C` (stereo not given), the TGI in the test on OVCAR-5 ovarian was 19.8 µM; in the test on EKVX NSCLC, 10.1 µM; in the test on TK-10 renal, 32.4 µM; in the test on NCI-H460 lung it was 9.93 µM; with SF-539 CNS it was 11.2 µM; in the test on MOLT-4 leukemia it was 26.8 µM. The TGI in the test with HOP-92 NSCLC was 4.52 µM; in the test with NCI/ADR-RES ovarian, more than 100 µM.

In the case of `C=C=C(CC(CC(=C)Br)(C(=O)OC)C(=O)OC)S(=O)(=O)c1ccccc1`, the TGI was 3.43 µM with OVCAR-5 ovarian; 10.8 µM with EKVX NSCLC; 4.8 µM in the test with TK-10 renal; 20.7 µM in the test with NCI-H460 lung; 3.33 µM in the test on SF-539 CNS; more than 100 µM with MOLT-4 leukemia. Also, the TGI was 3.97 µM in the test on HOP-92 NSCLC and 5.96 µM in the test with NCI/ADR-RES ovarian.
